Reference: US12606541B2, “PPARg modulators and methods of use” (Eisai R&D Management Co., Ltd., priority 2020, dated 2026)
pIC50: −log10 of the molar value. Read-outs that look alike come from different tables or passages of the source.

How the values were obtained:
UM-UC-9 engineered cells = test: Cell proliferation / short-term viability assay, CellTiter-Glo 144 h; format: cell-based, human; settings: read-out: CTGlo 144 h UMUC9.5, G150
Summary of the method: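 Viability read by CellTiter-Glo 2.0 luminescence at day 7 versus DMSO-vehicle wells and a T0 plate measured on day 0. Cells: UM-UC-9 engineered assay-ready stocks, 500 cells/well in high-glucose DMEM with 10% FBS, 37° C, 5% CO2.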

His6-TEV-PPARγ-(234-505) = target: T1, His6-TEV-PPARγ-(234-505) (Homo sapiens, UniProt P37231); test: TR-FRET Assay to Measure Co-R Peptide Recruitment to PPARγ; format: biochemical; settings: Co-R peptide (SMRT-ID2) recruitment, top final concentration 20 μM, read-out: TR-FRET i-Ag, AC50
T1 construct: The His6-TEV-PPARγ-(234-505) protein for assay was expressed and purified; TEV cleavage site (N); made in house
T1 sequence (P37231 234-505): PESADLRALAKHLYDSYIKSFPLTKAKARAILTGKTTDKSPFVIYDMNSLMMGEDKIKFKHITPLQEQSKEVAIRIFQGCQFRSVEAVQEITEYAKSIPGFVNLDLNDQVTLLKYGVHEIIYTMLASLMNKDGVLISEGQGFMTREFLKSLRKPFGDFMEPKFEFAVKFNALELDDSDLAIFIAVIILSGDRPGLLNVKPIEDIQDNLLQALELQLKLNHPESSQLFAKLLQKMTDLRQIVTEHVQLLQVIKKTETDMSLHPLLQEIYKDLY
Summary of the method: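 Corepressor recruitment is measured by adding terbium-labeled anti-His antibody and FITC SMRT-ID2 peptide, at 5 and 200 nM final, after a 20-minute room-temperature protein–compound incubation. After one further hour, signal is converted to percent response between DMSO and 500 nM T0070907 wells.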

| Compound | pIC50 (UM-UC-9 engineered cells; Homo sapiens, UM-UC-9, 144 h) | AC50 (His6-TEV-PPARγ-(234-505)) [nM] | also measured |
| --- | --- | --- | --- |
| COc1cc(-c2cc(C(=O)N3CCC(C(=O)NC4CCC(C)CC4)CC3)n[nH]2)c(F)cn1 (single isomer, unassigned) [Example 114-B] | – | – | pIC50 (UM-UC-9 engineered cells; listed as 114b): 7.57; AC50 (His6-TEV-PPARγ-(234-505); listed as 114b): 15.8 nM |
| COc1cc(-c2cc(C(=O)N3CCC(C(=O)NC(C)c4cccc(Cl)c4)CC3)n[nH]2)c(Cl)cn1 (single isomer, unassigned) [Example 115-A] | – | – | pIC50 (UM-UC-9 engineered cells; listed as 115a): 5.88; AC50 (His6-TEV-PPARγ-(234-505); listed as 115a): 717 nM |
| COc1cc(-c2cc(C(=O)N3CCC(C(=O)NC(C)c4cccc(Cl)c4)CC3)n[nH]2)c(Cl)cn1 (single isomer, unassigned) [Example 115-B] | – | – | pIC50 (UM-UC-9 engineered cells; listed as 115b): 6.58; AC50 (His6-TEV-PPARγ-(234-505); listed as 115b): 59.5 nM |
| COc1cc(-c2cc(C(=O)N3CCC(C(=O)NC4CCC(C(F)(F)F)CC4)CC3)n[nH]2)c(Cl)cn1 (single isomer, unassigned) [Example 118-A] | – | – | pIC50 (UM-UC-9 engineered cells; listed as 118a): 6.93; AC50 (His6-TEV-PPARγ-(234-505); listed as 118a): 15.5 nM |
| COc1cc(-c2cc(C(=O)N3CCC(C(=O)NC4CCC(C(F)(F)F)CC4)CC3)n[nH]2)c(Cl)cn1 (single isomer, unassigned) [Example 118-B] | – | – | pIC50 (UM-UC-9 engineered cells; listed as 118b): 5.53; AC50 (His6-TEV-PPARγ-(234-505); listed as 118b): 964 nM |
| COc1cc(-c2cc(C(=O)N3CC[C@@H](C(=O)N[C@H]4CC[C@@](O)(C(F)(F)F)CC4)CC34CC4)n[nH]2)c(F)cn1 (single isomer, unassigned) [Example 169-A] | 6.56 | 79 | – |
| COc1cc(-c2cc(C(=O)N3CC[C@H](C(=O)N[C@H]4CC[C@@](O)(C(F)(F)F)CC4)CC34CC4)n[nH]2)c(F)cn1 (single isomer, unassigned) [Example 169-B] | 8.85 | 2.3 | – |
| COc1cc(-c2cc(C(=O)N3[C@@H]4CC[C@H]3C[C@H](C(=O)N[C@H]3CC[C@@](O)(C(F)(F)F)CC3)C4)n[nH]2)c(F)cn1 (single isomer, unassigned) [Example 170-A] | 7.93 | 4.7 | – |
| COc1cc(-c2cc(C(=O)N3CC[C@H](C(=O)NCc4cccc(Cl)c4)CC34CC4)n[nH]2)c(Cl)cn1 (single isomer, unassigned) [Example 245-A] | 8.39 | 8.3 | – |
| COc1cc(-c2cc(C(=O)N3CC[C@@H](C(=O)NCc4cccc(Cl)c4)CC34CC4)n[nH]2)c(Cl)cn1 (single isomer, unassigned) [Example 245-B] | 6.38 | 109 | – |
| COc1cc(-c2cc(C(=O)N3CC[C@H](C(=O)NCc4cccc(Cl)c4)CC3(C)C)n[nH]2)c(Cl)cn1 (single isomer, unassigned) [Example 255-A] | 6.85 | 49.6 | – |
| COc1cc(-c2cc(C(=O)N3CC[C@@H](C(=O)NCc4cccc(Cl)c4)CC3(C)C)n[nH]2)c(Cl)cn1 (single isomer, unassigned) [Example 255-B] | 5.39 | 1760 | – |
| COc1cc(-c2cc(C(=O)N3CC[C@H](C(=O)NCc4cccc(Cl)c4)CC34CCC4)n[nH]2)c(Cl)cn1 (single isomer, unassigned) [Example 256-A] | 7.14 | 92.4 | – |
| COc1cc(-c2cc(C(=O)N3CC[C@@H](C(=O)NCc4cccc(Cl)c4)CC34CCC4)n[nH]2)c(Cl)cn1 (single isomer, unassigned) [Example 256-B] | 5.45 | 15900 | – |
| COc1cc(-c2cc(C(=O)N3[C@@H]4CC[C@H]3C[C@H](C(=O)NC3CCC(C(F)(F)F)OC3)C4)n[nH]2)c(F)cn1 (single isomer, unassigned) [Example 280-A] | 5.24 | 895 | – |
| COc1cc(-c2cc(C(=O)N3CC[C@@H](C(=O)N[C@H]4CC[C@@](O)(C(F)(F)F)CC4)CC34CC4)n[nH]2)c(Cl)cn1 (single isomer, unassigned) [Example 286-A] | 6.34 | 304 | – |

| Compound | pIC50 (UM-UC-9 engineered cells; Homo sapiens, UM-UC-9, 144 h) | AC50 (His6-TEV-PPARγ-(234-505)) [nM] | also measured |
| --- | --- | --- | --- |
| COc1cc(-c2cc(C(=O)N3CC[C@H](C(=O)N[C@H]4CC[C@@](O)(C(F)(F)F)CC4)CC34CC4)n[nH]2)c(Cl)cn1 (single isomer, unassigned) [Example 286-B] | 8.82 | 2.2 | – |
| Cc1cc(-c2cc(C(=O)N3CC[C@H](C(=O)N[C@H]4CC[C@@](O)(C(F)(F)F)CC4)CC34CC4)n[nH]2)c(F)cn1 (single isomer, unassigned) [Example 287-A] | 8.62 | 2.3 | – |
| Cc1cc(-c2cc(C(=O)N3CC[C@@H](C(=O)N[C@H]4CC[C@@](O)(C(F)(F)F)CC4)CC34CC4)n[nH]2)c(F)cn1 (single isomer, unassigned) [Example 287-B] | 6.73 | 118 | – |
| COc1cc(-c2cc(C(=O)N3CC[C@H](C(=O)NCc4ccc5[nH]nc(F)c5c4)CC34CC4)n[nH]2)c(F)cn1 (single isomer, unassigned) [Example 288-A] | 9.05 | 4.4 | – |
| COc1cc(-c2cc(C(=O)N3CC[C@@H](C(=O)NCc4ccc5[nH]nc(F)c5c4)CC34CC4)n[nH]2)c(F)cn1 (single isomer, unassigned) [Example 288-B] | 7.25 | 39 | – |
| CO[C@]1(C(F)(F)F)CC[C@@H](NC(=O)[C@@H]2CCN(C(=O)c3cc(-c4cc(C)ncc4F)[nH]n3)C3(CC3)C2)CC1 (single isomer, unassigned) [Example 293-A] | 6.06 | 281 | – |
| CO[C@]1(C(F)(F)F)CC[C@H](NC(=O)[C@@H]2CCN(C(=O)c3cc(-c4cc(C)ncc4F)[nH]n3)C3(CC3)C2)CC1 (single isomer, unassigned) [Example 293-B] | 5.49 | 1640 | – |
| CO[C@]1(C(F)(F)F)CC[C@@H](NC(=O)[C@H]2CCN(C(=O)c3cc(-c4cc(C)ncc4F)[nH]n3)C3(CC3)C2)CC1 (single isomer, unassigned) [Example 293-C] | 8.80 | 2.8 | – |
| CO[C@]1(C(F)(F)F)CC[C@H](NC(=O)[C@H]2CCN(C(=O)c3cc(-c4cc(C)ncc4F)[nH]n3)C3(CC3)C2)CC1 (single isomer, unassigned) [Example 293-D] | 7.07 | 17 | – |
| CCOC1(C(F)(F)F)CCC(NC(=O)[C@@H]2C[C@H]3CC[C@@H](C2)N3C(=O)c2cc(-c3cc(OC)ncc3F)[nH]n2)CC1 (single isomer, unassigned) [Example 303-B] | 7.09 | 29.8 | – |
| CCO[C@]1(C(F)(F)F)CC[C@@H](NC(=O)[C@H]2CCN(C(=O)c3cc(-c4cc(C)ncn4)[nH]n3)C3(CC3)C2)CC1 (single isomer, unassigned) [Example 308-C] | 8.23 | 2 | – |
| CCO[C@]1(C(F)(F)F)CC[C@H](NC(=O)[C@H]2CCN(C(=O)c3cc(-c4cc(C)ncn4)[nH]n3)C3(CC3)C2)CC1 (single isomer, unassigned) [Example 308-D] | 6.72 | 25.6 | – |
| CCO[C@]1(C(F)(F)F)CC[C@@H](NC(=O)[C@@H]2CCN(C(=O)c3cc(-c4cc(C)ncn4)[nH]n3)C3(CC3)C2)CC1 (single isomer, unassigned) [Example 308-E] | 5.59 | 635 | – |
| CCO[C@]1(C(F)(F)F)CC[C@H](NC(=O)[C@@H]2CCN(C(=O)c3cc(-c4cc(C)ncn4)[nH]n3)C3(CC3)C2)CC1 (single isomer, unassigned) [Example 308-F] | 6.72 | 6360 | – |
| CO[C@]1(C(F)(F)F)CC[C@@H](NC(=O)[C@H]2CCN(C(=O)c3cc(-c4cc(C)ncn4)[nH]n3)C3(CC3)C2)CC1 (single isomer, unassigned) [Example 309-A] | 8.27 | 2.9 | – |
